Source: PMC7385619, “A triple action CDK4/6-PI3K-BET inhibitor with augmented cancer cell cytotoxicity” (Cell Discovery, 2020)

What was measured:
Assay in all cases: KINOMEscan assay (Eurofins DiscoverX)
Format in all cases: binding
[1] = biological target: T1, kinome (kinase panel) (Homo sapiens, UniProt O00506); conditions: YSK1 (STK25); 1000 nM; read-out: Percent Control
T1 construct: purchased Eurofins DiscoverX

[2] = biological target: T2, kinome (kinase panel) (Homo sapiens, UniProt O15111); conditions: IKK-alpha (Entrez CHUK); 1000 nM; read-out: Percent Control
T2 construct: purchased Eurofins DiscoverX

[3] = biological target: T3, kinome (kinase panel) (Homo sapiens, UniProt O75460); conditions: ERN1; 1000 nM; read-out: Percent Control
T3 construct: purchased Eurofins DiscoverX

[4] = biological target: T4, kinome (kinase panel) (Homo sapiens, UniProt P00519, Q252H)
T4 construct: purchased Eurofins DiscoverX

[5] = biological target: T5, kinome (kinase panel) (Homo sapiens, UniProt P00533, G719C); conditions: […]; 1000 nM; read-out: Percent Control
T5 construct: purchased Eurofins DiscoverX

[6] = biological target: T6, kinome (kinase panel) (Homo sapiens, UniProt P07948); conditions: LYN; 1000 nM; read-out: Percent Control
T6 construct: purchased Eurofins DiscoverX

[7] = biological target: T7, kinome (kinase panel) (Homo sapiens, UniProt P0C264); conditions: SgK110; 1000 nM; read-out: Percent Control
T7 construct: purchased Eurofins DiscoverX

[8] = biological target: T8, kinome (kinase panel) (Homo sapiens, UniProt P11309); conditions: PIM1; 1000 nM; read-out: Percent Control
T8 construct: purchased Eurofins DiscoverX
T8 sequence (P11309 whole entry): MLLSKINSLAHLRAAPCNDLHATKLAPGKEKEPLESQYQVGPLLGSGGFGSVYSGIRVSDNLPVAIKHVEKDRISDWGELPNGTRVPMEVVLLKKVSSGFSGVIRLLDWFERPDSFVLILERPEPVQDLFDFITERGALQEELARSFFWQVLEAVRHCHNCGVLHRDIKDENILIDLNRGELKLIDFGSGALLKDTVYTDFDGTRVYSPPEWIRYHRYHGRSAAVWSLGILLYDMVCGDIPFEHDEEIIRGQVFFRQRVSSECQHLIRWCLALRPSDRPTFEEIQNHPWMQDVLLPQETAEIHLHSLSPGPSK

[9] = biological target: T9, kinome (kinase panel) (Homo sapiens, UniProt P15056, V600E); conditions: […]; 1000 nM; read-out: Percent Control
T9 construct: purchased Eurofins DiscoverX

[10] = biological target: T10, kinome (kinase panel) (Homo sapiens, UniProt P17612); conditions: PKAC-alpha (Entrez PRKACA); 1000 nM; read-out: Percent Control
T10 construct: purchased Eurofins DiscoverX

[11] = biological target: T11, kinome (kinase panel) (Homo sapiens, UniProt P36896); conditions: ACVR1B; 1000 nM; read-out: Percent Control
T11 construct: purchased Eurofins DiscoverX

[12] = biological target: T12, kinome (kinase panel) (Homo sapiens, UniProt P36897); conditions: TGFBR1; 1000 nM; read-out: Percent Control
T12 construct: purchased Eurofins DiscoverX

[13] = biological target: T13, kinome (kinase panel) (Homo sapiens, UniProt P42336, E545K); conditions: read-out: Percent Control
T13 construct: purchased Eurofins DiscoverX

[14] = biological target: T14, kinome (kinase panel) (Homo sapiens, UniProt P42680); conditions: TEC; 1000 nM; read-out: Percent Control
T14 construct: purchased Eurofins DiscoverX
T14 sequence (P42680 whole entry): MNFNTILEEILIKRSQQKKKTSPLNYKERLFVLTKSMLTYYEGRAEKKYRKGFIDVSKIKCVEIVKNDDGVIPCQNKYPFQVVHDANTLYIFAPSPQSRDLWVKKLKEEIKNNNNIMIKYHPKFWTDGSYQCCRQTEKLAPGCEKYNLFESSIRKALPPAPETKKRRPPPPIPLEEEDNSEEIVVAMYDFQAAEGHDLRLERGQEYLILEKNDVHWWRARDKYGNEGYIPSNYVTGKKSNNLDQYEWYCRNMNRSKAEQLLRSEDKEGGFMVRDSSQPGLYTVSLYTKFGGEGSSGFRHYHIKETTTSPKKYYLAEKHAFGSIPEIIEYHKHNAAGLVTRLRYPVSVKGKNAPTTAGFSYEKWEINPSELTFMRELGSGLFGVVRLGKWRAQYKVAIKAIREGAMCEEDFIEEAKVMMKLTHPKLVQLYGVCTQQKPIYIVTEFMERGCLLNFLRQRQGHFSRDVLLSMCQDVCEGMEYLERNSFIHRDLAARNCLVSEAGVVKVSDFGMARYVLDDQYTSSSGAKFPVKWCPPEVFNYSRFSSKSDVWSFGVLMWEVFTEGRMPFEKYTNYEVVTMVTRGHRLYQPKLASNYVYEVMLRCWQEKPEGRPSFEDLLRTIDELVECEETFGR

[15] = biological target: T15, kinome (kinase panel) (Homo sapiens, UniProt P42685); conditions: FRK; 1000 nM; read-out: Percent Control
T15 construct: purchased Eurofins DiscoverX

[16] = biological target: T16, kinome (kinase panel) (Homo sapiens, UniProt P45984); conditions: JNK2 (Entrez MAPK9); 1000 nM; read-out: Percent Control
T16 construct: purchased Eurofins DiscoverX

[17] = biological target: T17, kinome (kinase panel) (Homo sapiens, UniProt P53355); conditions: DAPK1; 1000 nM; read-out: Percent Control
T17 construct: purchased Eurofins DiscoverX

[18] = biological target: T18, kinome (kinase panel) (Homo sapiens, UniProt P57059); conditions: SIK (SIK1); 1000 nM; read-out: Percent Control
T18 construct: purchased Eurofins DiscoverX

[19] = biological target: T19, kinome (kinase panel) (Homo sapiens, UniProt Q00526); conditions: CDK3; 1000 nM; read-out: Percent Control
T19 construct: purchased Eurofins DiscoverX

[20] = biological target: T20, kinome (kinase panel) (Homo sapiens, UniProt Q02763); conditions: TIE2 (TEK); 1000 nM; read-out: Percent Control
T20 construct: purchased Eurofins DiscoverX

[21] = biological target: T21, kinome (kinase panel) (Homo sapiens, UniProt Q13043); conditions: MST1 (Entrez STK4); 1000 nM; read-out: Percent Control
T21 construct: purchased Eurofins DiscoverX

[22] = biological target: T22, kinome (kinase panel) (Homo sapiens, UniProt Q13976); conditions: PRKG1; 1000 nM; read-out: Percent Control
T22 construct: purchased Eurofins DiscoverX

[23] = biological target: T23, kinome (kinase panel) (Homo sapiens, UniProt Q14164); conditions: IKK-epsilon (Entrez IKBKE); 1000 nM; read-out: Percent Control
T23 construct: purchased Eurofins DiscoverX

[24] = biological target: T24, kinome (kinase panel) (Homo sapiens, UniProt Q6ZWH5); conditions: NEK10; 1000 nM; read-out: Percent Control
T24 construct: purchased Eurofins DiscoverX
T24 sequence (Q6ZWH5 whole entry): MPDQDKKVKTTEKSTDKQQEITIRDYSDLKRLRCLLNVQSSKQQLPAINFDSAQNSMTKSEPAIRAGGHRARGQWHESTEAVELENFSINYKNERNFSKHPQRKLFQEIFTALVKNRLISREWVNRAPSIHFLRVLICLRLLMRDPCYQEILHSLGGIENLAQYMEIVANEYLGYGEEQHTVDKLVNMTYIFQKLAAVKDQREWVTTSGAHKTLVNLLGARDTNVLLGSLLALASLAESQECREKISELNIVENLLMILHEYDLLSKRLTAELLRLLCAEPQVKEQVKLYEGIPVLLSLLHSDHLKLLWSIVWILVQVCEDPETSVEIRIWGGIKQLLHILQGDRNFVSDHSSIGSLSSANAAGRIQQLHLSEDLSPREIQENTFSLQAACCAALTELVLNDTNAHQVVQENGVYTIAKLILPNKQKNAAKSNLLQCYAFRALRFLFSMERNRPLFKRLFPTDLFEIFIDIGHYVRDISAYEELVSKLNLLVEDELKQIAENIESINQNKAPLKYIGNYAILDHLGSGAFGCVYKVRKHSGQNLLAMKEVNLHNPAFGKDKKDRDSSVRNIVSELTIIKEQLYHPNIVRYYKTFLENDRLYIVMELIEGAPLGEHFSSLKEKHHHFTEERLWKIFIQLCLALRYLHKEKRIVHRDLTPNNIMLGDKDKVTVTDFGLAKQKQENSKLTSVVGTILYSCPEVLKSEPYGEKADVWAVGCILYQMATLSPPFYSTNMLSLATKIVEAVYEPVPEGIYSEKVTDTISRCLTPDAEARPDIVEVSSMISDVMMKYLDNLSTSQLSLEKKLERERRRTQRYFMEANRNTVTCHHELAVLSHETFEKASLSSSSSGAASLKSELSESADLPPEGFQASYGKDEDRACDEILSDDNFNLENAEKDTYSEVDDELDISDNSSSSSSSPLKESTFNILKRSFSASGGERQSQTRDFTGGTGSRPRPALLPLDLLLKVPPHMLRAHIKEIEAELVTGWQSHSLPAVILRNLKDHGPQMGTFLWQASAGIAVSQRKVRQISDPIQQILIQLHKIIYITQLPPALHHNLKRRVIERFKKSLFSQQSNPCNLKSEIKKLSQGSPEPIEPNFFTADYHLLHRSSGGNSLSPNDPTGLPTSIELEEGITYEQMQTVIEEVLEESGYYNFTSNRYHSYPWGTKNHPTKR

[25] = biological target: T25, kinome (kinase panel) (Homo sapiens, UniProt Q8TDX7); conditions: NEK7; 1000 nM; read-out: Percent Control
T25 construct: purchased Eurofins DiscoverX

[26] = biological target: T26, kinome (kinase panel) (Homo sapiens, UniProt Q9BYP7); conditions: WNK3; 1000 nM; read-out: Percent Control
T26 construct: purchased Eurofins DiscoverX

[27] = biological target: T27, kinome (kinase panel) (Homo sapiens, UniProt Q9H3Y6); conditions: SRMS; 1000 nM; read-out: Percent Control
T27 construct: purchased Eurofins DiscoverX

[28] = biological target: T28, kinome (kinase panel) (Homo sapiens, UniProt Q9HAZ1); conditions: CLK4; 1000 nM; read-out: Percent Control
T28 construct: purchased Eurofins DiscoverX
T28 sequence (Q9HAZ1 whole entry): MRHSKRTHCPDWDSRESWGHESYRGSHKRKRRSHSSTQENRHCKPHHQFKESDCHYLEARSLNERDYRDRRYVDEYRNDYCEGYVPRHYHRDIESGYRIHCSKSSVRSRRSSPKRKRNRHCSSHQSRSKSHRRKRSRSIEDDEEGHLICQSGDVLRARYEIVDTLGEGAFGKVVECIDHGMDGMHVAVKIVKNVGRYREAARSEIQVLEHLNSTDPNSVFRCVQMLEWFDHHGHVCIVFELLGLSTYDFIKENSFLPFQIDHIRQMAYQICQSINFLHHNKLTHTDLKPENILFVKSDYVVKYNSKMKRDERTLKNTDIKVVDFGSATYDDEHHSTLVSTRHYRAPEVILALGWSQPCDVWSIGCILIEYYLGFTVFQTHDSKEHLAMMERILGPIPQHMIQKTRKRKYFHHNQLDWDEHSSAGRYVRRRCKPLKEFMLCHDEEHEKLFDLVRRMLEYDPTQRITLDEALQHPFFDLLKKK

[29] = biological target: T29, kinome (kinase panel) (Homo sapiens, UniProt Q9HC98); conditions: NEK6; 1000 nM; read-out: Percent Control
T29 construct: purchased Eurofins DiscoverX

[30] = biological target: T30, kinome (kinase panel) (Homo sapiens, UniProt Q9UBF8); conditions: PIK4CB (Entrez PI4KB); 1000 nM; read-out: Percent Control
T30 construct: purchased Eurofins DiscoverX
T30 sequence (Q9UBF8 whole entry): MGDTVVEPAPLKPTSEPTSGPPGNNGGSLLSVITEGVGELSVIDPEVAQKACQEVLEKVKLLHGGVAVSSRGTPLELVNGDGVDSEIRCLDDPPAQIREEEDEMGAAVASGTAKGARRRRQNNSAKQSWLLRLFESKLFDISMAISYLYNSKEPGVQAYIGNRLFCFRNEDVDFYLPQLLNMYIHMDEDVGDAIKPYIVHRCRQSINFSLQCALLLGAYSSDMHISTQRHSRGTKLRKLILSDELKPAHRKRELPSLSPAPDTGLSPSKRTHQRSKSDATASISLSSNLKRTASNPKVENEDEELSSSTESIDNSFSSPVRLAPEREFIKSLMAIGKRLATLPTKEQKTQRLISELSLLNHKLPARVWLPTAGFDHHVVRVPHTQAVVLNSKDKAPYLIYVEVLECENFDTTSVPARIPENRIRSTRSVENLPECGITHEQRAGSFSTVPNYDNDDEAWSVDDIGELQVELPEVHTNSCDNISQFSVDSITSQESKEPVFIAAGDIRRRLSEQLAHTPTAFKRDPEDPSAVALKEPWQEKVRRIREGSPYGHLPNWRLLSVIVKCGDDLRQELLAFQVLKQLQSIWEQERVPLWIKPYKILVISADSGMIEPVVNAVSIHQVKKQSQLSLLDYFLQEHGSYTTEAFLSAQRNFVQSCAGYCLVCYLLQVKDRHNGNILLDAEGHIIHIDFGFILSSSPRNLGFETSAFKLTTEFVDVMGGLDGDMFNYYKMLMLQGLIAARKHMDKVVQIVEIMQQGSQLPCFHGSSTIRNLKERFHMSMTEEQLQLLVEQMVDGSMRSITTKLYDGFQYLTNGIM

[31] = biological target: T31, kinome (kinase panel) (Homo sapiens, UniProt Q9UM73, L1196M); conditions: […]; 1000 nM; read-out: Percent Control
T31 construct: purchased Eurofins DiscoverX
T31 sequence (Q9UM73 19-1620 L1196M): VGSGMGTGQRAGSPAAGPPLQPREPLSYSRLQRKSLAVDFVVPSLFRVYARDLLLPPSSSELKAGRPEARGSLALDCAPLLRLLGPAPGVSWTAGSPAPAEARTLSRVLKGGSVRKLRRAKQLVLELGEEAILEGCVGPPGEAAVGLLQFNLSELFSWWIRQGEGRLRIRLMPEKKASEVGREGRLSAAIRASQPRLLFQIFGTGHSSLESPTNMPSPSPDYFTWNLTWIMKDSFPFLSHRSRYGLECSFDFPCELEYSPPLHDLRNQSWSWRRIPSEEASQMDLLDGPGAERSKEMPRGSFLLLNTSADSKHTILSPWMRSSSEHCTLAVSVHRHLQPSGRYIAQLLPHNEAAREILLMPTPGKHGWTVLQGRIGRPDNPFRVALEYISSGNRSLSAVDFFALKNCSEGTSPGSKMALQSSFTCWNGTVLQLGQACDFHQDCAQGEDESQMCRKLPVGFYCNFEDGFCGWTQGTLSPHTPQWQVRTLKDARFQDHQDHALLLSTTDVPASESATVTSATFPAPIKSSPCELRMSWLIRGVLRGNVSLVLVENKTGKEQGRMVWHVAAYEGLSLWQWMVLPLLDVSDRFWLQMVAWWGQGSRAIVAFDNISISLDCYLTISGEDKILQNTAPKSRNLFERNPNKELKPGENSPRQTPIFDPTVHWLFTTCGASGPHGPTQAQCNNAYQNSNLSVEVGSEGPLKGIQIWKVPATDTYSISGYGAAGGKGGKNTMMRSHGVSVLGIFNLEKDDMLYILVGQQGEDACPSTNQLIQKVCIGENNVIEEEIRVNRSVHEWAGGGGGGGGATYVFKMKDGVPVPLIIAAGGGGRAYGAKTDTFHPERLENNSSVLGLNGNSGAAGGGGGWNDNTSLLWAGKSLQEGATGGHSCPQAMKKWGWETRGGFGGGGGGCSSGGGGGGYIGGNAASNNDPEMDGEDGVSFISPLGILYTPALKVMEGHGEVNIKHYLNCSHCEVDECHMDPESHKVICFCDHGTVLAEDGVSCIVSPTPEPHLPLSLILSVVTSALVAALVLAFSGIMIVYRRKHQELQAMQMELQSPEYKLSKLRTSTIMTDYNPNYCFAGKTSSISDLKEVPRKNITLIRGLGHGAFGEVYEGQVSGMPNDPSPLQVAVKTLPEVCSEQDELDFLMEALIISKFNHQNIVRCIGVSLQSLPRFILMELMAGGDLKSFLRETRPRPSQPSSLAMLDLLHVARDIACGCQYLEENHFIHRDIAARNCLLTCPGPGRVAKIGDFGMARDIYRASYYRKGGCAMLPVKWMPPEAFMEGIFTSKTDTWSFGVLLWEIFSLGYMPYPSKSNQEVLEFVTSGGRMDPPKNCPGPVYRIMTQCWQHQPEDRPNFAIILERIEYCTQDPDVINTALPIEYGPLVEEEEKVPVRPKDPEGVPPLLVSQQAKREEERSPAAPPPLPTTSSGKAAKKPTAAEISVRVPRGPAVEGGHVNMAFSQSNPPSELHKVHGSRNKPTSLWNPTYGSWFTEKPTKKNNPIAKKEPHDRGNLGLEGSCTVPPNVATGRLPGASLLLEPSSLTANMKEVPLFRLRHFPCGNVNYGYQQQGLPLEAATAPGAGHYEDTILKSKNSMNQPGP

[32] = system: kinome (kinase panel); conditions: for Percent Control: 1000 nM

CN(C)C(=O)c1cc2cnc(Nc3ccc(-c4csc5c(=O)cc(N6CCOCC6)oc45)cc3)nc2n1C1CCCC1 [SRX3177]
remaining binding at 1 µM [1]: 100% | remaining binding at 1 µM [2]: 61% | remaining binding at 1 µM [3]: 85% | Percent Control [4]: 58 | remaining binding at 1 µM ([4]; read-out: Percent Control): 72% | remaining binding at 1 µM [5]: 79% | remaining binding at 1 µM [6]: 94% | remaining binding at 1 µM [7]: 38% | remaining binding at 1 µM [8]: 56% | remaining binding at 1 µM [9]: 64% | remaining binding at 1 µM [10]: 96% | remaining binding at 1 µM [11]: 100% | remaining binding at 1 µM [12]: 100% | remaining binding at 1 µM [13]: 45% | remaining binding at 1 µM [14]: 95% | remaining binding at 1 µM [15]: 100% | remaining binding at 1 µM [16]: 47% | remaining binding at 1 µM [17]: 100% | remaining binding at 1 µM [18]: 94% | remaining binding at 1 µM [19]: 69% | remaining binding at 1 µM [20]: 100% | remaining binding at 1 µM [21]: 100% | remaining binding at 1 µM [22]: 100% | remaining binding at 1 µM [23]: 51% | remaining binding at 1 µM [24]: 100% | remaining binding at 1 µM [25]: 100% | remaining binding at 1 µM [26]: 100% | remaining binding at 1 µM [27]: 92% | remaining binding at 1 µM [28]: 100% | remaining binding at 1 µM [29]: 100% | remaining binding at 1 µM [30]: 19% | remaining binding at 1 µM [31]: 84% | specificity in KINOMEscan [32]: lack of off-targeting | Percent Control ([32]; EGFR(L747-E749del, A750P)): 100 | Percent Control ([32]; EGFR(L747-S752del, P753S)): 65 | Percent Control ([32]; EGFR(L747-T751del,Sins)): 75 | Percent Control ([32]; FLT3(ITD)): 49 | Percent Control ([32]; FLT3(ITD,D835V)): 27 | Percent Control ([32]; FLT3(ITD,F691L)): 45
